Laboratory results: US20180222953A1, “SARCOMERE BIOSENSOR AND METHODS OF USE THEREOF” (REGENTS OF THE UNIVERSITY OF MINNESOTA, priority 2017, published 2018)
“Also recorded” adds a separate entry of the source.

Columns and labels:
[1] = test system: isolated adult cardiac myocytes; test: Sarcomere length (SL) shortening in isolated Sarcometer Tg cardiac myocytes before and after treatment; assay type: cell-based, mouse; settings: 0.2 Hz stimulation; for SL contractile amplitude: 37° C.
Procedure: Mice were injected with 0.25 cc 10,000U/ml heparin (McKesson cat#NDC 63739-964-25) and anesthetized 10 minutes later with 0.15 cc 50 mg/ml sodium pentobarbital (Vortech Pharmaceuticals). The heart was rapidly excised and placed in ice cold Krebs-Henseleit buffer (Sigma cat#K3753) modified with 25 mM HEPES (Sigma cat#H4034), 10 mM 2,3-Butanedione monoxime (Sigma cat#B0753), 30 mM Taurine (Sigma cat#T0625) and the aorta was cannulated. The mounted heart was placed on a perfusion system at 37° C. The heart was perfused with calcium free modified Krebs-Henseleit buffer with 2 mg/ml crudely purified collagenase for 10 minutes. The heart was then removed from the cannula, the atria were removed and the ventricles were dissected into pieces approximately 2 mm in diameter. The dissected ventricular tissue was then gently mechanically triturated in collagenase to liberate isolated myocytes. After brief low-speed centrifugation, isolated myocytes were resuspended in nominal calcium and 0.025 mg/ml bovine serum albumin (HyClone cat#SH30574.03) in a modified Kreb-Henseleit buffer. After the final trituration step, calcium was added back to the buffer step wise until reaching a final concentration of 2 mM CaCl2. Myocytes were plated on laminin-coated (ThermoFisher cat#23017015) glass coverslips in M199 media (Gibco cat#31100-035) containing 5% fetal bovine serum (HyClone cat#SH30071.03) and incubated for one hour at 37° C. with 5% CO2. After the one hour incubation, the media was changed to serum free M199 media and the myocytes were used for experiments within 5 hours.
(§1) For real-time simultaneous sarcomere length and biosensor measurements, a modified Ionoptix Calcium and Contractility system was used. Sarcomere length changes were detected at 240 Hz sampling rate and fluorescence measurements were detected at 1000 Hz sampling rate with two photomultipler tubes. Measurements were made at 37° C. and a stimulation frequency of 0.2 Hz unless specified otherwise. For biosensor measurements, a Xenon arc lamp was used and filtered with a 500/10 nm hard-coated bandpass filter before entering the microscope turret. The microscope turret featured a 505 dichroic long pass filter. Fluorescent light from the sample was shunted through microscope side port where it was split by a dichroic mirror with light above 650 nm going towards the Myocam for sarcomere length detection and light below 650 nm being further shunted to an additional filter cube. In this final filter cube, a 565 nm dichroic long pass mirror split the light again. Light with wavelengths below 565 nm corresponding to the Clover protein was further cleaned up by a 534/20 nm hard-coated bandpass filter before reaching the photomultiplier tuber and light with wavelengths above 565 nm was further cleaned up by a 592/43 nm hard-coated bandpass filter before reaching the photomultiplier tube. For calcium fluorescence measurements, the mouse myocytes were pre-loaded for 20 minutes in M199 solution containing 1 μM Fura-2 AM (ThermoFisher Cat #F1221), and a ten minute period was allowed for deesterification. For calcium fluorescence measurements the 360/380 nm ratio was determined. For each myocyte, several contractions were measured, averaged, and analyzed using the IonWizard software.
Eight to twelve week old mice of both sexes were injected with 0.25 cc 10,000U/ml heparin and anesthetized 10 minutes later with 0.15 cc 50 mg/ml sodium pentobarbital. The heart was rapidly excised and placed in ice cold Krebs-Henseleit buffer modified with 25 mM HEPES, 10 mM 2,3-Butanedione monoxime, 30 mM Taurine and the aorta was cannulated. The mounted heart was placed on a perfusion system at 37° C. The heart was perfused with calcium free modified Krebs-Henseleit buffer with 2 mg/ml crudely purified collagenase for 10 minutes. The heart was then removed from the cannula, the atria were removed and the ventricles were dissected into pieces approximately 2 mm in diameter. […]

[2] = test system: sarcomere activation (Sarcometer cTnC biosensor) in live cardiac myocytes; test: Sarcometer Clover fluorescence (FRET) transient in live cardiac myocytes before and after treatment; assay type: cell-based, mouse; settings: 0.2 Hz stimulation; for Sarcometer kinetics / Clover peak fluorescence intensity (Sarcometer amplitude): 37° C.
Procedure: as §1
Eight to twelve week old mice of both sexes were injected with 0.25 cc 10,000U/ml heparin and anesthetized 10 minutes later with 0.15 cc 50 mg/ml sodium pentobarbital. The heart was rapidly excised and placed in ice cold Krebs-Henseleit buffer modified with 25 mM HEPES, 10 mM 2,3-Butanedione monoxime, 30 mM Taurine and the aorta was cannulated. The mounted heart was placed on a perfusion system at 37° C. The heart was perfused with calcium free modified Krebs-Henseleit buffer with 2 mg/ml crudely purified collagenase for 10 minutes. The heart was then removed from the cannula, the atria were removed and the ventricles were dissected into pieces approximately 2 mm in diameter. The dissected ventricular tissue was then gently mechanically triturated in collagenase to liberate isolated myocytes. After brief low-speed centrifugation, isolated myocytes were resuspended in nominal calcium and 0.025 mg/ml bovine serum albumin in a modified Kreb-Henseleit buffer. After the final trituration step, calcium was added back to the buffer step wise until reaching a final concentration of 2 mM CaCl2. Myocytes were plated on laminin-coated (ThermoFisher cat#23017015) glass coverslips in M199 media (Gibco cat#31100-035) containing 5% fetal bovine serum and incubated for one hour at 37° C. with 5% CO2. After the one hour incubation, the media was changed to serum free M199 media and the myocytes were used for experiments within 5 hours.
For real-time simultaneous sarcomere length and Sarcometer biosensor measurements, a modified Ionoptix Calcium and Contractility system was used. Sarcomere length changes were detected at 240 Hz sampling rate and fluorescence measurements were detected at 1000 Hz sampling rate with two photomultipler tubes (FIG. 9). Measurements were made at 37° C. and a stimulation frequency of 0.2 Hz unless specified otherwise. For Sarcometer measurements, a Xenon arc lamp was used and filtered with a 500/10 nm hard-coated bandpass filter before entering the microscope turret. The microscope turret featured a 505 dichroic long pass filter. […]

[3] = test system: cardiac myocyte calcium transients; test: Fura-2 AM calcium transients in single cardiac myocytes; assay type: cell-based, mouse; settings: 10 μM, n=4 pairs
Procedure: For real-time simultaneous sarcomere length and biosensor measurements, a modified Ionoptix Calcium and Contractility system was used. Sarcomere length changes were detected at 240 Hz sampling rate and fluorescence measurements were detected at 1000 Hz sampling rate with two photomultipler tubes. Measurements were made at 37° C. and a stimulation frequency of 0.2 Hz unless specified otherwise. For biosensor measurements, a Xenon arc lamp was used and filtered with a 500/10 nm hard-coated bandpass filter before entering the microscope turret. The microscope turret featured a 505 dichroic long pass filter. […] For calcium fluorescence measurements, the mouse myocytes were pre-loaded for 20 minutes in M199 solution containing 1 μM Fura-2 AM (ThermoFisher Cat #F1221), and a ten minute period was allowed for deesterification. For calcium fluorescence measurements the 360/380 nm ratio was determined. For each myocyte, several contractions were measured, averaged, and analyzed using the IonWizard software.
For real-time simultaneous sarcomere length and Sarcometer biosensor measurements, a modified Ionoptix Calcium and Contractility system was used. Sarcomere length changes were detected at 240 Hz sampling rate and fluorescence measurements were detected at 1000 Hz sampling rate with two photomultipler tubes (FIG. 9). […] For calcium fluorescence measurements the 360/380 nm ratio was determined. […]

[4] = molecular target: TnC hydrophobic patch (Homo sapiens, UniProt P63316); settings: binds directly to the TnC hydrophobic patch; Oleszczuk et al. 2010; cited from earlier work
[5] = 10 μM, before vs after treatment
[6] = 10 μM, before vs after treatment, listed as PNB

For `COC(=O)N1CCN(Cc2cccc(NC(=O)Nc3ccc(C)nc3)c2F)CC1` [Omecamtiv mecarbil], the SL contractile amplitude ([1]; 250 nM, n=14 pairs) was “increased contractile amplitude”, the SL contractile amplitude ([1]; 250 nM, n=14 pairs, listed as OM) was “significant increase SL amplitude” and the Sarcometer kinetics ([2]; 250 nM) was “no effect”. For the same compound, the “Clover peak fluorescence intensity (Sarcometer amplitude)” value (shortened to “Clover peak fluorescence intensity”) ([2]; 250 nM, n=17 pairs) was “no difference in peak fluorescence intensity” and the “Clover peak fluorescence intensity” value ([2]; 250 nM, n=17 pairs, listed as OM) was “no effect”.

In the case of `CC(C)NCC(O)c1ccc(O)c(O)c1` (centres unmarked) [isoproterenol], the SL shortening amplitude ([1]; 50 nM, 30° C., before vs after treatment, n=34 pairs) is reported as “increase myocyte contraction; also recorded: increased shortening amplitude”, the “sarcomere dynamics kinetics (SL relaxation)” value ([1]; 50 nM, 30° C., n=34 pairs) is reported as “speed SL relaxation; also recorded: faster kinetics” and the “Clover fluorescence kinetics (transient decay rate)” value ([2]; 50 nM, 30° C., n=24 pairs) is reported as “significantly faster; also recorded: faster kinetics”. For the same compound, the “peak Clover fluorescence intensity” value ([2]; 50 nM, 30° C., n=24 pairs) was “increased peak Clover fluorescence intensity”.

With `COc1ccc(-c2nc3ccc(C4=NNC(=O)CC4C)cc3[nH]2)cc1` (centres unmarked) [Pimobendan] the SL contractile amplitude [1, 5] was “increased SL amplitude; also recorded: increased contractile amplitude” and the “Clover peak fluorescence intensity” value [2, 5] was “significant increase in Clover signal amplitude; also recorded: increased peak fluorescence intensity”.

With `Cc1ccc2c(c1)C(=O)[C@]1(O)CCN(c3ccc([N+](=O)[O-])cc3)C1=N2` [para-Nitroblebbistatin] the SL contractile amplitude [1, 5] was “decreased contractile amplitude”, the SL contractile amplitude [1, 6] was “effectively blocked contraction” and the Sarcometer kinetics ([2]; 10 μM) was “no significant effect”. The “Clover peak fluorescence intensity” value [2, 5] was “no difference in peak fluorescence intensity” and the “Clover peak fluorescence intensity” value [2, 6] was “no significant effect”.

In the case of `NCCCCCCNS(=O)(=O)c1cccc2c(Cl)cccc12` [W7, N-aminohexyl-5-chloro-1-naphthalenesulfonamide], the SL contractile amplitude [1, 5] is reported as “reduced SL amplitude; also recorded: decreased contractile amplitude”, the “Clover peak fluorescence intensity” value [2, 5] is reported as “significantly depressed; also recorded: decreased peak fluorescence intensity” and the “calcium transient amplitude or kinetics” value [3] is reported as “unaltered; also recorded: no changes in calcium amplitude or kinetics”. The “decrease of TnI switch peptide binding” value [4] was 13 fold.
